Where two headings read alike, the source gives them in different places.

For one data set, the target named is T1, FAK (Homo sapiens, UniProt Q05397).
T1 construct: endogenous in cells; host or cells: U87MG glioblastoma cells (ATCC HTB-14)
Nature of the data set: Cell-based capture ELISA for inhibition of FAK autophosphorylation [pY397] in U87MG cells. Put shortly: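 U87MG cells on fibronectin-coated plates treated with compounds for 2 h at 37° C in complete growth medium (0.6% DMSO final). Lysates captured on anti-FAK ELISA plates; pY397 detected with phospho-specific antibody, HRP and chromogen at 450 nm. Variant run with 50% (v/v) mouse or human plasma.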

Data set [1] addresses T2, GST-tagged full-length FAK enzyme (PTK2) (Homo sapiens, UniProt Q05397).
T2 construct: GST-tagged full-length FAK enzyme (PTK2, Invitrogen PV4085); GST; purchased Invitrogen PV4085
Nature of the data set: Biochemical Omnia Assay (FAK). The essentials:
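GST-tagged full-length human FAK, added at 50 nM to compound and a peptide (40 μM)/ATP (200 μM) solution, stated before mixing. Omnia peptide phosphorylation followed continuously by fluorescence increase. Duplicate points; IC50 by nonlinear fitting of linear progress-curve slopes.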

Where [2] appears, read: 50% (v/v) mouse plasma, mean IC50, read-out: FAK Activity Mechanistic (U87MG) MP.
The mark [3] stands for this setting: no plasma present, mean IC50, read-out: FAK Activity Mechanistic (U87MG) NP.
[4] abbreviates: 50% (v/v) human plasma, mean IC50, read-out: FAK Activity Mechanistic (U87MG) HP.
Where [5] appears, read: mean IC50, [ATP] = 50uM, read-out: FAK Activity Biochemical OMNIA, [ATP] = 50uM.

T1 sequence (Q05397 whole entry): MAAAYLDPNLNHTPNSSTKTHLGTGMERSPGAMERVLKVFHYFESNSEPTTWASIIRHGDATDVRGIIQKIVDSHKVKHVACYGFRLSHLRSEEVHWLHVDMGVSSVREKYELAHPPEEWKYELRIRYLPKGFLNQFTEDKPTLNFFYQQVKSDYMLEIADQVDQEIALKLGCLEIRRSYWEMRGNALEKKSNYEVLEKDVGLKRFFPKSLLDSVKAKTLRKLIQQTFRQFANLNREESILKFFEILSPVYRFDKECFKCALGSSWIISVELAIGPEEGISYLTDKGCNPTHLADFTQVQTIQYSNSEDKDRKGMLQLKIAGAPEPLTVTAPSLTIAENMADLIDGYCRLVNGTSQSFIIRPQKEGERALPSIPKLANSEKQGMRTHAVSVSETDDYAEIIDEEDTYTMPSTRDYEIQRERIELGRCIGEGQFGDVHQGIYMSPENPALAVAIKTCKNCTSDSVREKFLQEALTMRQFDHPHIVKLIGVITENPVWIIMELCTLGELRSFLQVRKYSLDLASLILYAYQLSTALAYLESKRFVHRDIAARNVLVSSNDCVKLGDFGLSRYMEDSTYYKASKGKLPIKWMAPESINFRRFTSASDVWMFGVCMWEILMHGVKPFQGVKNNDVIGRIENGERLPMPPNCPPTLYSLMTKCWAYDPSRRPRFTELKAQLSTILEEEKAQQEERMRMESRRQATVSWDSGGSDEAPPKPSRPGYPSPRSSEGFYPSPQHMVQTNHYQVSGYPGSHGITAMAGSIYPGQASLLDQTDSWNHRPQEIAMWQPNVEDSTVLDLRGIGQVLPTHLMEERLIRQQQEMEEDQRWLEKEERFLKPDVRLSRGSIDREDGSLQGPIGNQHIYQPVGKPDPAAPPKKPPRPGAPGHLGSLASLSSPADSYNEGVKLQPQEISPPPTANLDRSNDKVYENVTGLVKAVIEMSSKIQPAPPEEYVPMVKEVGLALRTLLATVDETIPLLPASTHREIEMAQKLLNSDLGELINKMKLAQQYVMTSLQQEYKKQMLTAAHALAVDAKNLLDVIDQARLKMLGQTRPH
T2 sequence (Q05397 whole entry): as above

With `CCO[P@@]1(=O)Cc2ccc(c(OC)c2)Nc2ncc(C(F)(F)F)c(n2)Nc2ccc(c3c2C(=O)N(C)C3)-c2cnn(c2)CCCO1`, the ring closure, yield of all isomers (from CCOP(=O)(O)Cc1ccc(Nc2ncc(C(F)(F)F)c(Nc3ccc(-c4cnn(CCCO)c4)c4c3C(=O)N(C)C4)n2)c(OC)c1, ester bond, PyBOP/DIPEA, 1,2-dichloroethane, 1.17 mM, 72.0 h) was found to be 14.1%.

Turning to `CCOP1(=O)Cc2ccc(c(OC)c2)Nc2ncc(C(F)(F)F)c(n2)Nc2ccc(nc2C(=O)NC)-c2cnn(c2)CC2(COC2)CO1` (racemic), the ring closure, yield of all isomers (from CCOP(=O)(Cc1ccc(Nc2ncc(C(F)(F)F)c(Nc3ccc(Br)nc3C(=O)NC)n2)c(OC)c1)OCC1(Cn2cc(B3OC(C)(C)C(C)(C)O3)cn2)COC1, cc_pd bond, Pd(dppf)Cl2·CH2Cl2, K2CO3, 1,4-dioxane, 13.5 mM, 100.0 °C, 0.5 h) came to 43%.

Take `CCOP1(=O)Cc2ccc(c(OC)c2)Nc2ncc(C(F)(F)F)c(n2)Nc2ccc(c(OC)c2C(=O)NC)-c2cnn(c2)CCCO1` (racemic) [Example 30]: the values for the IC50 (at FAK (setting [2]); on FAK (setting [3]); in data set [1]) were 400 to 4000 nM, less than 400 nM and less than 400 nM, respectively.

As to `CCOP1(=O)Cc2ccc(c(OC)c2)Nc2ncc(C(F)(F)F)c(n2)Nc2ccc(nc2C(=O)NC)-c2cnn(c2)CC(C)CO1` (single isomer, unassigned) [Example 18], the IC50 (at FAK (setting [4]); on FAK (setting [3]); in data set [1] (setting [5])) was less than 400 nM each time.

Regarding `CCOP1(=O)Cc2ccc(c(OC)c2)Nc2ncc(C(F)(F)F)c(n2)Nc2ccc(nc2C(=O)NC)-c2cnn(c2)CC2(COC2)CO1` (racemic) [Example 44], the IC50 (on FAK (setting [4]); at FAK (setting [3]); in data set [1]) was less than 400 nM in each case.

Take `CCOP1(=O)Cc2ccc(c(OC)c2)Nc2ncc(C(F)(F)F)c(n2)Nc2ccc(nc2C(=O)NC)-c2cnn(c2)CC(C)(C)CO1` (racemic) [Example 47]: the IC50 (on FAK (setting [4]); on FAK (setting [3]); in data set [1]) was less than 400 nM throughout.

On to `CCOP1(=O)Cc2ccc(c(F)c2)Nc2ncc(C(F)(F)F)c(n2)Nc2ccc(nc2C(=O)NC)-c2cnn(c2)CCCCO1` (racemic) [Example 23], for which the IC50 (on FAK (setting [4]); on FAK (setting [3]); in data set [1] (setting [5])) was less than 400 nM each time.

For `CCOP1(=O)Cc2ccc(c(OC)c2)Nc2ncc(C(F)(F)F)c(n2)Nc2ccc(nc2C(=O)NC)-c2cn(nc2Cl)CCCO1` (single isomer, unassigned) [Example 49A], the IC50 on FAK (setting [4]) is greater than 4000 nM; on FAK (setting [2]) it was 400 to 4000 nM; at FAK (setting [3]), less than 400 nM; in data set [1] (setting [5]), less than 400 nM.

With `CCOP1(=O)Cc2ccc(c(OC)c2)Nc2ncc(C(F)(F)F)c(n2)Nc2cc(F)c(c3c2C(=O)N(C)C3)-c2cnn(c2)CCCO1` (racemic) [Example 31], the IC50 (at FAK (setting [3]); in data set [1]) was less than 400 nM each time.

Turning to `CCOP1(=O)Cc2ccc(c(OC)c2)Nc2ncc(C(F)(F)F)c(n2)Nc2ccc(c(Cl)c2C(=O)NC)-c2cnn(c2)CCCO1` (racemic) [Example 28], the IC50 was greater than 4000 nM at FAK (setting [2]), 400 to 4000 nM at FAK (setting [3]) and less than 400 nM in data set [1].

Regarding `CCOP1(=O)Cc2ccc(c(OC)c2)Nc2ncc(C(F)(F)F)c(n2)Nc2ccc(nc2C(=O)NC)-c2cn(nc2Cl)CCCO1` (racemic) [Example 49], the IC50 at FAK (setting [4]) was less than 400 nM; at FAK (setting [2]), 400 to 4000 nM; on FAK (setting [3]), less than 400 nM; in data set [1] (setting [5]), less than 400 nM.

As to `CCOP1(=O)Cc2ccc(c(OC)c2)Nc2ncc(C(F)(F)F)c(n2)Nc2ccc(nc2C(=O)NC)-c2cnn(c2C#N)CCCO1` (racemic) [Example 53], the IC50 was greater than 4000 nM at FAK (setting [3]) and 400 to 4000 nM in data set [1] (setting [5]).

Regarding `CCOP1(=O)Cc2ccc(c(OC)c2Cl)Nc2ncc(C(F)(F)F)c(n2)Nc2ccc(nc2C(=O)NC)-c2cnn(c2)CCCO1` (racemic) [Example 54], the figures for the IC50 (at FAK (setting [4]); on FAK (setting [3]); in data set [1]) were 400 to 4000 nM, less than 400 nM and less than 400 nM, respectively.

With `CCOP1(=O)Cc2ccc(c(OC)c2)Nc2ncc(C(F)(F)F)c(n2)Nc2ccc(nc2C(=O)NC)-c2cnn(c2)C(C)(C)CCO1` (racemic) [Example 50], the IC50 (at FAK (setting [4]); on FAK (setting [3]); in data set [1] (setting [5])) was less than 400 nM throughout.

Regarding `CCOP1(=O)Cc2ccc(c(OC)c2)Nc2ncc(C(F)(F)F)c(n2)Nc2ccc(c(F)c2C(=O)NC)-c2cnn(c2)CCCO1` (racemic) [Example 27], the IC50 on FAK (setting [2]) is 400 to 4000 nM; on FAK (setting [3]), less than 400 nM; in data set [1] it was less than 400 nM.

Turning to `CCOP1(=O)Cc2ccc(c(Cl)c2)Nc2ncc(C(F)(F)F)c(n2)Nc2ccc(nc2C(=O)NC)-c2cnn(c2)CCCO1` (single isomer, unassigned) [Example 24A], the IC50 at FAK (setting [4]) was greater than 4000 nM; at FAK (setting [2]), 400 to 4000 nM; at FAK (setting [3]), less than 400 nM; in data set [1] (setting [5]) it was less than 400 nM.

As to `CCOP1(=O)Cc2ccc(c(OC)c2)Nc2ncc(C(F)(F)F)c(n2)Nc2ccc(nc2C(=O)NC)-c2cc(C(=O)N3CC(C)(O)C3)n(c2)CCCO1` (racemic) [Example 40], the IC50 on FAK (FAK Activity Mechanistic (U87MG) MP, 50% (v/v) mouse plasma, mean IC50) is 400 to 4000 nM; at FAK (setting [3]), less than 400 nM; in data set [1], less than 400 nM.

On to `CCOP1(=O)Cc2cc(OC)c(cc2Cl)Nc2ncc(C(F)(F)F)c(n2)Nc2ccc(nc2C(=O)NC)-c2cnn(c2)CC2(COC2)CO1` (single isomer, unassigned) [Example 57A], for which the IC50 was greater than 4000 nM on FAK (setting [4]), 400 to 4000 nM at FAK (setting [2]), less than 400 nM on FAK (setting [3]) and less than 400 nM in data set [1].

In the case of `CCOP1(=O)Cc2ccc(c(Cl)c2)Nc2ncc(C(F)(F)F)c(n2)Nc2ccc(nc2C(=O)NC)-c2cnn(c2)CC2(COC2)CO1` (single isomer, unassigned) [Example 58A], the IC50 at FAK (setting [4]) is 400 to 4000 nM; at FAK (setting [3]), less than 400 nM; in data set [1] it was less than 400 nM.

For the compound `CCOP1(=O)Cc2ccc(c(Cl)c2)Nc2ncc(C(F)(F)F)c(n2)Nc2ccc(nc2C(=O)NC)-c2cnn(c2)CC2(COC2)CO1` (racemic) [Example 58], the IC50 (on FAK (setting [4]); at FAK (setting [3]); in data set [1]) was less than 400 nM throughout.

With `CCOP1(=O)Cc2ccc(c(OC)c2)Nc2ncc(C(F)(F)F)c(n2)Nc2ccc(c3c2C(=O)N(C)C3)-c2cnn(c2)C[C@H](O)CO1` (mixture of isomers) [Example 5], the IC50 (on FAK (setting [4]); on FAK (setting [3]); in data set [1]) was less than 400 nM each time.

`CCOP1(=O)Cc2ccc(cc2)Nc2ncc(C(F)(F)F)c(n2)Nc2ccc(c3c2C(=O)N(C)C3)-c2cnn(c2)CCCO1` (racemic) [Example 2]: the IC50 (on FAK (setting [4]); in data set [1]) was less than 400 nM in each case.

Consider `CCOP1(=O)Cc2ccc(c(OC)c2)Nc2ncc(C(F)(F)F)c(n2)Nc2ccc(nc2C(=O)NC)-c2cn(nc2C#N)CCCO1` (racemic) [Example 52], for which the IC50 (on FAK (setting [3]); in data set [1]) was less than 400 nM each time.

Consider `CNC(=O)c1nc2ccc1Nc1nc(ncc1C(F)(F)F)Nc1ccc(cc1OC)CP(=O)(O)OCCCn1cc-2cn1` [Example 65, 10-hydroxy-14-methoxy-N-methyl-20-(trifluoromethyl)-9-oxa-4,5,16,18,22,25,28-heptaaza-10-phosphapentacyclo[21.2.2.2^12,15.1^2,5.1^17,21]hentriaconta-1(25),2(31),3,12,14,17(28),18,20,23,26,29-undecaene-24-carboxamide 10-oxide], for which the IC50 on FAK (setting [4]) was greater than 4000 nM; at FAK (setting [2]), greater than 4000 nM; at FAK (setting [3]), greater than 4000 nM; in data set [1] (setting [5]) it was less than 400 nM.

In the case of `CCOP1(=O)Cc2ccc(c(OC)c2)Nc2ncc(C(F)(F)F)c(n2)Nc2ccc(cc2C(=O)NC)-c2cnn(c2)CCCCO1` (racemic) [Example 14], the IC50 (on FAK (setting [4]); on FAK (setting [3]); in data set [1] (setting [5])) was less than 400 nM in each case.

Consider `CCOP1(=O)Cc2ccc(cc2)Nc2ncc(C(F)(F)F)c(n2)Nc2ccc(nc2C(=O)NC)-c2cnn(c2)CC(C)CO1` (mixture of isomers) [Example 21], for which the IC50 (at FAK (setting [4]); on FAK (setting [3]); in data set [1] (setting [5])) was less than 400 nM in each case.

For `CCOP1(=O)Cc2ccc(cc2)Nc2ncc(C(F)(F)F)c(n2)Nc2ccc(nc2C(=O)NC)-c2cnn(c2)CCCCO1` (stereo not drawn) [Example 16, 11-ethoxy-N-methyl-21-(trifluoromethyl)-10-oxa-4,5,17,19,23,26,29-heptaaza-11-phosphapentacyclo[22.2.2.2^13,16.1^2,5.1^18,22]dotriaconta-1(26),2(32),3,13,15,18(29),19,21,24,27,30-undecaene-25-carboxamide 11-oxide], the IC50 (on FAK (setting [4]); on FAK (setting [3]); in data set [1]) was less than 400 nM throughout.

`CCOP1(=O)Cc2ccc(c(OC)c2)Nc2ncc(C(F)(F)F)c(n2)Nc2ccc(nc2C(=O)NC)-c2cnn(c2)CC(C)CO1` (mixture of isomers) [Example 19]: the IC50 (at FAK (setting [4]); at FAK (setting [3]); in data set [1] (setting [5])) was less than 400 nM in each case.

For `CCOP1(=O)Cc2cc(OC)c(cc2Cl)Nc2ncc(C(F)(F)F)c(n2)Nc2ccc(nc2C(=O)NC)-c2cnn(c2)CC2(COC2)CO1` (racemic) [Example 57], the values for the IC50 (on FAK (setting [4]); at FAK (setting [3]); in data set [1]) were 400 to 4000 nM, less than 400 nM and less than 400 nM, respectively.

The values above are taken from patent US9133224B2, “Macrocyclic kinase inhibitors” (OSI Pharmaceuticals, LLC, priority 2010, dated 2015).
